For assay [1], the system named is P-388 leukemia. The experiment in a line: Prolongation of life of mice inoculated with P-388 leukemia, dosing every fifth day. In kind it is in vivo. The settings on record: 50-400 mg/kg every fifth day.
Assay [2] deals with CA-755 adenocarcinoma. Kind of assay: Activity vs. CA-755 adenocarcinoma (Table 7). Type of assay: in vivo, mice. The settings on record: once or twice daily for 9-10 days.
Procedure: (§3) All compounds were administered once or twice daily for 9-10 days starting 24 hours after inoculation with the tumor.
The test system of assay [3] is CX-1 colon xenograft. The experiment in a line: Activity against CX-1 colon xenograft. Type of assay: in vivo. How it is done: In addition, the compound 3,4-dihydroxybenzenehydroxamic acid was active against CX-1 colon xenograft using the following protocol:
0% tumor inhibition at 800 mg/kg dose level every fourth day,
3,4,5-trihydroxybenzohydroxamic acid gave the following results against the same tumor using the same protocol.

The target of assay [4] is T1, ribonucleotide reductase (Rattus norvegicus, UniProt Q4KLN6).
T1 construct: partially purified from Novikoff hepatoma; from tissue; host or cells: Novikoff hepatoma (rat tumour), partially purified enzyme
T1 sequence (Q4KLN6 1-390): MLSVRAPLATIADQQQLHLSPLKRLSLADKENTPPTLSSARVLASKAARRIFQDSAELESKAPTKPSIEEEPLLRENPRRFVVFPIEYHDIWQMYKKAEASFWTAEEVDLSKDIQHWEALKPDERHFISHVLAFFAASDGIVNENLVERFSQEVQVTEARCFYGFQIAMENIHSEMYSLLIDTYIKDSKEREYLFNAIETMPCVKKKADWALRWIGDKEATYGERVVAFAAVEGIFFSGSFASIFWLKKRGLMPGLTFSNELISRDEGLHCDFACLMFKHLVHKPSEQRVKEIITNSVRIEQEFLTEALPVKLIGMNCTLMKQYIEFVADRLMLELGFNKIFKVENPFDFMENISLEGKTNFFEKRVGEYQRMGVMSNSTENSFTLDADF
The experiment in a line: Inhibition of ribonucleotide reductase (conversion of CDP to dCDP), enzyme partially purified from Novikoff hepatoma. In kind it is biochemical. The source says:
(§1) Table 2 gives ribonucleotide reductase data for certain compounds of formula I. In the table, column 1 gives the substitution pattern in the benzene ring, column 2, the R^1 group, column 3, the ID50 (inhibitory dose in micromolar concentration which inhibits ribonucleotide reductase by 50%), column 4, the average percent (± standard error) increase in the life span (ILS) of 8 treated mice inoculated with L1210 leukemia compared with 8 control mice also inoculated with L1210. The daily dose level of the drug which was administered for 8 days is indicated in column 5. Table 3 gives the relative potency of the compounds represented by formula I above as inhibitors of ribonucleotide reductase compared to hydroxyurea whose potency was given an arbitrary value of 1.0. In table 3, column 1 gives the name of the compound and column 2 the relative inhibitory potency of each of the compounds of column 1.
In the above determination of ID50 's in Table 3, ribonucleotide reductase is partially purified from Novikoff hepatoma by a procedure similar to that set forth by Elford et al. J. Biol. Chem. 245, 5228 (1970). The activity of the enzyme was measured by a slightly modified assay procedure originally developed by Reichard et al. id, 236, 1150 […]. This procedure measures the conversion of CDP to dCDP. The assay mixture (0.34 ml.) contains 3 μCi of [^3 H] CDP (specific activity […]), 3.3 μmole ATP, 5.9 μmoles magnesium chloride, 8.8 μmoles Hepes buffer at pH=7.5, 15 μmoles dithiothreitol and enzyme protein between 0.4 and 1.3 mg. Incubation was provided for forty minutes at 30° C. Ion exchange chromatography employing Dowex 50 (H^+) resin is used to separate the product from the substrate. The inhibitors were dissolved in water and a mixture of water and up to 1 % ethanol or 2% dimethylsulfoxide, neither one of which inhibited the enzyme at these concentrations. Each inhibitor was tested at a minimum of three concentrations and the active compounds reassayed at least one additional time. ID50 's in μmoles were estimated from graphs summarizing results for each compound.

Assay [5] has as its system L1210 leukemia. Kind of assay: L1210 leukemia in mice, increase in life span (Table 2). The settings on record: Mus musculus, L1210, 192 h; 400 mg/kg daily for 8 days; read-out: ILS, average percent (± standard error) increase in life span. In kind it is in vivo.
Source text: As stated above, the compounds represented by formula I above have the ability to inhibit ribonucleotide reductase, an enzyme involved in the reductive conversion of ribonucleotides to deoxyribonucleotides. This enzymatic reaction is a rate controlling step in the biosynthetic pathway leading to DNA and cell replication. In general, the ribonucleotide reductase level is closely correlated with cellular replication.
as §1

In assay [6] the test system is B16 melanoma. Kind of assay: B16 melanoma, increase in survival. In kind it is in vivo, mice. The source says: (§2) The same two compounds were effective in inhibiting the growth of the following transplanted tumors--B16 melanoma, M-1 human breast xenograft, LX-1 human lung xenograft, CD8F mammary tumor and colon 38 tumor--as follows: […]
In assay [7] the test system is CD8F mammary tumor. Kind of assay: Inhibition of growth of CD8F mammary tumor. Type of assay: in vivo.
Source text: as §2

Assay [8] relates to L-5563 lymphoma. Kind of assay: Activity vs. L-5563 lymphoma (Table 6). The settings on record: 100 mg/kg; once or twice daily for 9-10 days.
Procedure: as §3
The subject of assay [9] is Lewis Lung. Kind of assay: Activity vs. Lewis Lung (Table 5). The settings on record: 100 mg/kg; once or twice daily for 9-10 days. In kind it is in vivo, mice.
Procedure: as §3
For assay [10], the system named is colon 38 tumor. The experiment in a line: Inhibition of growth of colon tumor C8 (colon 38). Type of assay: in vivo, mice.
Source text: as §2

The subject of assay [11] is M-1 human breast xenograft. Kind of assay: Inhibition of growth of M-1 human breast xenograft. In kind it is in vivo, mice.
Source text: as §2
In general terms: Xenograft models place foreign cells or tissue in a host animal.

In assay [12] the test system is L-1210 Leukemia. Type of assay: in vivo, mice. How it is done: In a series of studies against L-1210 leukemia, in addition to those studies set forth in Table 2 and 4, 3,4-dihydroxybenzohydroxamic acid gave the following increases in survival times at the dose levels specified. Drug was administered daily for nine days.
Similar data for 3,4,5-trihydroxybenzohydroxamic acid are as follows: […]

For assay [13], the system named is P388 Leukemia. The experiment in a line: Activity vs. P388 Leukemia (Table 8). The settings on record: once or twice daily for 9-10 days. In kind it is in vivo, mice.
Procedure: as §3
Assay [14] concerns L-1210 Leukemia. In kind it is in vivo, mice. The settings on record: once or twice daily for 9-10 days.
Procedure: as §3
For assay [15], the system named is L1210 leukemia. The settings on record: National Cancer Institute; cited from earlier work.
For assay [16] the following is noted: Biochemical Pharmacology 1971; cited from earlier work.

Values joined by “and” are separate entries in the source; they are usually repeats but may differ in a detail not shown here. Identical values can stand only once. Like-named read-outs stand apart in the source and are kept apart here.

The % inhibition is the percentage by which the read-out fell short of the control. Broadly, the ILS is the gain in survival time of treated over control animals, in per cent. The term inhibition denotes the share of the control response that was lost under treatment. With `O=C(NO)c1cc(O)c(O)c(O)c1` [3,4,5-trihydroxybenzohydroxamic acid], in assay [1], the prolongation of life is 23-53%. Also, the “% inhibition” value turned out to be 28% in assay [2] (100 mg/kg), 11% in [2] (150 mg/kg), 29% in [2] (175 mg/kg) and 41% in [8]. Further, the figures for the tumor inhibition in assay [3] (200 mg/kg every fourth day), in assay [3] (400 mg/kg every fourth day) and in assay [3] (800 mg/kg every fourth day) were 17%, 40% and 44%, respectively. The IC50 in assay [4] (CDP to dCDP, 40 min at 30° C, pH 7.5, enzyme from Novikoff hepatoma, read-out: ID50 (inhibitory dose which inhibits ribonucleotide reductase by 50%)) amounted to 10 µM. For the same compound, the “Inhibitory Potency for ribonucleotide reductase” value in assay [4] (relative to hydroxyurea, given an arbitrary value of 1.0) was found to be 50. The ILS at 400 mg/kg in [5] is 53 ± 19%. For the same compound, the increase in survival is given as 14% in assay [6] (100 mg/kg) and 18% in [6] (200 mg/kg). In addition, the inhibition came out at 0% in [7] (300 mg/kg); 22% in assay [7] (600 mg/kg); 20% in assay [10] (50 mg/kg); 30% in assay [10] (100 mg/kg); 32% in [10] (200 mg/kg); 17% in [10] (400 mg/kg). For the same compound, the inhibition in assay [10] (800 mg/kg) stood at 60%; in [11] (200 mg/kg) it was 69%; in assay [11] (400 mg/kg) it was 21%; in [11] (800 mg/kg), 56%; in assay [11] (1600 mg/kg), 41%. The “% tumor inhibition” value in assay [9] was 40%. The “% increase in survival” value in assay [12] (50 mg/kg daily for nine days) is 27% and 29%; in assay [12] (200 mg/kg daily for nine days) it was 54% and 56%; in [12] (400 mg/kg daily for nine days), 0% and 4%. Further, the “% increase in survival time” value is 16% in assay [12] (dose 800, similar data (daily for nine days)); 60% in assay [14] (75 mg/kg); 58% and 55% in [14] (100 mg/kg, listed as gallohydroxamic acid); 54% in assay [14] (120 mg/kg). The “% Prolongation” value was found to be 62% in assay [13] (200 mg/kg) and 79% in assay [13] (225 mg/kg).
On to `O=C(NO)c1ccc(O)cc1` [4-hydroxybenzoylhydroxamic acid], for which, in assay [15], the “antitumor activity in vivo against L1210 leukemia (in words)” value is recorded as “significant antitumor activity in vivo”. Further, the “antimitogenic activity (in words)” value in assay [16] is reported as “most active compounds tested”.

The values are drawn from patent US4448730A, “Hydroxybenzohydroxamic acids, benzamides and esters and related compounds as ribonucleotide reductase inhibitors” (priority 1982, dated 1984).
